The target of series [1] is T1, D-amino acid oxidase (DAAO; EC 1.4.3.3) (Sus scrofa, UniProt P00371).
T1 construct: purchased Sigma
Kind of series: In vitro inhibition of DAAO using the keto acid method. Type of series: biochemical. The note with it: DAAO 20 μg/ml, D-Alanine 15 mM, 10 min at room temperature, pH 8.3, absorbance at 450 nm; read-out: keto acid method pIC50 (converted). As for the experimental part:
(§1) D-amino acid oxidase (DAAO; EC 1.4.3.3) catalyzes the oxidation of D-stereo isomers of amino acids.
Two in vitro methods were developed to measure the catalytic activity of DAAO: • 1. The peroxide method: measures the amount of peroxide produced, using an auxiliary enzyme horse radish peroxidase • 2. […]
DAAO (20 μg/ml) is incubated for 10 min at room temperature with the substrate D-Alanine (15 mM) in 0.19 mM pyrophosphatebuffer pH 8.3 containing FAD (11 μg/ml), and bovine liver catalase (EC 1.11.1.6) (4.3 mg/ml) in a total volume of 50 μl. Compounds were added in a 0.5 μl volume to a final DMSO concentration of 1%. The reaction is stopped by adding 25 μl 1 mM […] dinitrophenylhydrazine in 1N HCl, After a second 10 min incubation at room temperature, 175 μl 0.6 N NaOH is added and the formed hydrazone is detected by measuring the absorbance at 450 nm. All products were purchased from Sigma.

In series [2] the target is T1, D-amino acid oxidase (DAAO; EC 1.4.3.3). Briefly: In vitro inhibition of DAAO using the peroxide method. Type of series: biochemical. The note with it: DAAO 2.6 μg/ml, D-Alanine 7.5 mM, 60 minutes at room temperature, absorbance at 492 nm; read-out: H2O2 method pIC50 (converted). The procedure: as §1
Two in vitro methods were developed to measure the catalytic activity of DAAO: • 1. The peroxide method: measures the amount of peroxide produced, using an auxiliary enzyme horse radish peroxidase • 2. The keto acid method: measures the ax keto acid formed
The general reaction to determine the amount of peroxide produced by catalytic action of DAAO can be described as: [drawing 36]
DAAO (2.6 μg/ml) is incubated for 60 minutes at room temperature with the substrate D-Alanine (7.5 mM) in 0.019 M sodiumpyrophosphate buffer containing FAD(5.5 μg/ml), HRP (200 μg/ml), DHBS (1667 μg/ml) and 4-aminoantipyrine(500 μg/ml) in a total volume of 50 μl. Compounds were added in a 0.5 μl volume to a final DMSO concentration of 1%. The reaction was terminated by addition of 30 μl of 0.5M phosphate buffer pH 5.0. The quinone-imine dye was detected by measuring the absorbance at 492 nm. All products were purchased from Sigma.

T1 sequence (P00371 whole entry): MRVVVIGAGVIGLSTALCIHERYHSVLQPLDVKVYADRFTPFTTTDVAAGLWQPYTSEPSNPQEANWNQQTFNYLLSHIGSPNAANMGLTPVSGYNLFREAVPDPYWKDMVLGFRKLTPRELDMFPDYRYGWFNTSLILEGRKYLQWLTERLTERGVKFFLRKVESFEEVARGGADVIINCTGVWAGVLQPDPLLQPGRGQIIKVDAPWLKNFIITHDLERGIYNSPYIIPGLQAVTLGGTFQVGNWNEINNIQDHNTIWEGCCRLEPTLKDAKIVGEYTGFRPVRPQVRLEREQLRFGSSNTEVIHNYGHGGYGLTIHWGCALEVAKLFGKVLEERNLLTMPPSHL

Regarding `CNC(=O)n1oc2ccc(Cl)cc2c1=O` [Compound 22], the IC50 in series [1] is 794 nM; in series [2], 631 nM.

On to `CC(C)NC(=O)n1oc2ccccc2c1=O` [Compound 29], for which the IC50 in series [1] was 3980 nM.

In the case of `Cc1cc(C(=O)Oc2noc3cc(Cl)ccc23)no1` [Compound 18], the IC50 in series [1] is 126 nM; in series [2], 31.6 nM. For the compound `CCCNC(=O)n1oc2ccc(Cl)cc2c1=O` [Compound 25], the IC50 in series [1] is 794 nM; in series [2], 631 nM. In the case of `CC(C)(C)NC(=O)n1oc2cc(Cl)ccc2c1=O` [Compound 27], the IC50 in series [1] is 200 nM; in series [2], 50.1 nM. `Cc1ccc2onc(OC(=O)c3cc(C)on3)c2c1` [Compound 19] returned a melting point of 126 to 128 °C. Also, in series [1], the IC50 was 5010 nM. In addition, in series [2], the IC50 was 3980 nM. For `Cc1ccc2on(C(=O)NC(C)(C)C)c(=O)c2c1` [Compound 26], the IC50 was 2000 nM in series [1] and 3160 nM in series [2]. Regarding `O=C(/N=c1/c2ccccc2on1C(=O)c1ccccc1)c1ccccc1` [Compound 10], the melting point was 97 to 100 °C. Compound `COc1ccc2c(=O)n(C(=O)NC(C)C)oc2c1` [Compound 1] came in with a melting point of 121 °C. As for `CC(C)NC(=O)n1oc2ccc(Cl)cc2c1=O` [Compound 23], the IC50 in series [1] was 1000 nM; in series [2], 794 nM. Taken in the same sequence, the figures for `Cc1onc(-c2c(Cl)cccc2Cl)c1NC(=O)n1oc2ccc(Cl)cc2c1=O` [Compound 21] were 1000 nM and 631 nM. For `Cc1onc(-c2c(Cl)cccc2Cl)c1C(=O)Oc1noc2ccc(Cl)cc12` [Compound 17] the same measures were 1000 nM and 631 nM. For the compound `Cc1ccc2on(C(=O)NC(C)C)c(=O)c2c1` [Compound 28], the IC50 in series [1] was 2000 nM; in series [2], 3980 nM.

`COc1ccc2c(O)noc2c1` displayed a melting point of 208 °C.

For orientation: melting point means the temperature of the solid-liquid transition.
